Data from ChEMBL document CHEMBL3853313, “Iminoguanidines as Allosteric Inhibitors of the Iron-Regulated Heme Oxygenase (HemO) of Pseudomonas aeruginosa” (J Med Chem, 2016).
Calls of active or inactive are those of the source. No cut-off for these calls is given here.

Key:
[1] = system: Pseudomonas aeruginosa; assay: Antibacterial activity against Pseudomonas aeruginosa JSRI-2 clinical isolate after 12 hrs; assay type: functional; settings: JSRI-2, 12 h
[2] = system: Pseudomonas aeruginosa; assay: Bactericidal activity against Pseudomonas aeruginosa PAO1 after 12 hrs; assay type: functional; settings: PAO1, 12 h
[3] = system: Pseudomonas aeruginosa; assay: Antibacterial activity against Pseudomonas aeruginosa JSRI-1 clinical isolate after 12 hrs; assay type: functional; settings: JSRI-1, 12 h
[4] = system: Pseudomonas aeruginosa; assay: Bactericidal activity against Pseudomonas aeruginosa JSRI-2 clinical isolate after 12 hrs; assay type: functional; settings: JSRI-2, 12 h
[5] = system: Pseudomonas aeruginosa; assay: Antibacterial activity against Pseudomonas aeruginosa PAO1 after 12 hrs; assay type: functional; settings: PAO1, 12 h
[6] = Inhibition of Pseudomonas aeruginosa HemO mutant expressed in Escherichia coli BL21(DE3) assessed as decrease in biliverdin-9alpha-dependent IFP1.4 fluorescence after 16 hrs by spectrophotometric method
[7] = system: Pseudomonas aeruginosa; assay: Bactericidal activity against Pseudomonas aeruginosa JSRI-1 clinical isolate after 12 hrs; assay type: functional; settings: JSRI-1, 12 h
[8] = target: T1, Heme oxygenase (Pseudomonas aeruginosa, UniProt O69002); assay: Binding affinity to Pseudomonas aeruginosa HemO by intrinsic fluorescence quenching method
T1 sequence (O69002 whole entry): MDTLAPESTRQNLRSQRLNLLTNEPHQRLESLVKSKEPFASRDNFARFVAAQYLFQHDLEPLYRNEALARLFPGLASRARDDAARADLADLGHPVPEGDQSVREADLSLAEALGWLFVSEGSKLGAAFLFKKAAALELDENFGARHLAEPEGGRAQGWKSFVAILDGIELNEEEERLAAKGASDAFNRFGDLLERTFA

[9] = target: T2, Heme oxygenase (Pseudomonas aeruginosa) (UniProt O69002); assay: Binding affinity to Pseudomonas aeruginosa HemO by STD NMR method
T2 sequence (whole entry): T1 sequence (O69002 whole entry)

[10] = target: T2, Heme oxygenase (Pseudomonas aeruginosa); assay: Binding affinity to Pseudomonas aeruginosa holo-HemO (53 to 62 residues) at 30 mins by HXMS method
[11] = system: Escherichia coli; assay: Toxicity in Escherichia coli BL21(DE3) expressing Pseudomonas aeruginosa HemO mutant after 16 hrs by phase contrast microscopy

| Structure (SMILES) | MIC50 [1] | MBC [2] | MIC50 [3] | MBC [4] | MIC50 [5] | EC50 [6] | MBC [7] | Kd [8] | Activity [9] | Activity [10] | Activity [11] |
| --- | --- | --- | --- | --- | --- | --- | --- | --- | --- | --- | --- |
| Cl.N=C(N)N/N=C/c1ccc(F)cc1 | 69.4 µg/mL | 1000 µg/mL | 87.4 µg/mL | 500 µg/mL | 162 µg/mL | 77.5 µM | 1000 µg/mL | 14 µM | – | – | – |
| Cl.NC(N)=N/N=C/c1ccccc1Br | 33.4 µg/mL | 500 µg/mL | 62.9 µg/mL | 250 µg/mL | 50.1 µg/mL | 35.3 µM | 500 µg/mL | – | Active | – | – |
| N=C(N)N/N=C/c1cccc(OCc2ccccc2)c1 | – | – | – | – | – | – | – | – | Active | – | – |
| Cl.NC(N)=N/N=C/c1ccc(Cl)c(Cl)c1 | 16.4 µg/mL | 125 µg/mL | 24.1 µg/mL | 125 µg/mL | 32.3 µg/mL | 20.3 µM | 125 µg/mL | 8.4 µM | – | – | – |
| COc1ccc(/C=N/NC(=N)N)cc1.Cl | 38 µg/mL | 500 µg/mL | 30.5 µg/mL | 500 µg/mL | 113 µg/mL | 77.4 µM | 1000 µg/mL | 7.8 µM | – | – | – |
| Cl.NC(N)=N/N=C/c1ccc(-c2ccccc2)cc1 | 38 µg/mL | 125 µg/mL | 34.6 µg/mL | 62.5 µg/mL | 59.1 µg/mL | 21.9 µM | 125 µg/mL | 6.7 µM | – | Active | – |
| Cl.NC(N)=N/N=C/c1cccc(F)c1 | 68.2 µg/mL | 1000 µg/mL | 70 µg/mL | 250 µg/mL | 66.6 µg/mL | 45.1 µM | 1000 µg/mL | 12 µM | – | – | – |
| Cl.N=C(N)N/N=C/c1ccc([N+](=O)[O-])cc1 | 47.2 µg/mL | 1000 µg/mL | 61.4 µg/mL | 125 µg/mL | 72.8 µg/mL | 64.4 µM | 1000 µg/mL | 6.2 µM | – | – | – |
| Cl.N=C(N)N/N=C/c1ccccc1F | 72.9 µg/mL | 1000 µg/mL | 28.6 µg/mL | 250 µg/mL | 131 µg/mL | > 200 µM | > 1000 µg/mL | 11 µM | – | – | – |
| Cl.N=C(N)N/N=C/c1ccccc1O | 79.1 µg/mL | > 1000 µg/mL | 58.5 µg/mL | 250 µg/mL | 123 µg/mL | 102 µM | > 1000 µg/mL | 9.2 µM | Active | – | – |
| COc1cccc(/C=N/N=C(N)N)c1.Cl | 93.4 µg/mL | > 1000 µg/mL | 48.6 µg/mL | 500 µg/mL | 134 µg/mL | – | 1000 µg/mL | – | – | – | – |
| N=C(N)N/N=C/c1ccccc1Br | – | – | – | – | – | – | – | 6.7 µM | – | – | – |
| Cl.NC(N)=N/N=C/c1cccc(OCc2ccccc2)c1 | 33.9 µg/mL | 125 µg/mL | 25.5 µg/mL | 62.5 µg/mL | 23.2 µg/mL | 34.3 µM | 125 µg/mL | – | – | – | – |
| Cl.N=C(N)N/N=C/c1cccc(Cl)c1 | 33.5 µg/mL | 250 µg/mL | 19.2 µg/mL | 250 µg/mL | 52.4 µg/mL | 19.4 µM | 500 µg/mL | 8.4 µM | – | – | – |
| Cl.NC(N)=N/N=C/c1cccc(Br)c1 | 19.4 µg/mL | 250 µg/mL | 23 µg/mL | 125 µg/mL | 51.3 µg/mL | 11.2 µM | 500 µg/mL | 12 µM | – | – | – |
| CC(C)c1ccc(/C=N/NC(=N)N)cc1.Cl | 81 µg/mL | 125 µg/mL | 20.6 µg/mL | 125 µg/mL | 52.3 µg/mL | 11.3 µM | 125 µg/mL | 5.7 µM | – | – | – |
| Cl.N=C(N)N/N=C/c1cccc2ccccc12 | 36.1 µg/mL | 250 µg/mL | 30.4 µg/mL | 125 µg/mL | 32.1 µg/mL | 52.4 µM | 250 µg/mL | 12 µM | – | – | – |
| Cl.N=C(N)N/N=C/c1ccc(Cl)cc1 | 41.6 µg/mL | 500 µg/mL | 10.7 µg/mL | 62.5 µg/mL | 49 µg/mL | 122 µM | 250 µg/mL | 7 µM | – | – | – |
| Cl.N=C(N)N/N=C/c1ccc2ccccc2c1 | 75.6 µg/mL | 250 µg/mL | 31.7 µg/mL | 125 µg/mL | 48.4 µg/mL | 43.1 µM | 250 µg/mL | – | – | – | – |
| Cl.NC(N)=N/N=C/c1cc(O)cc(O)c1 | 564 µg/mL | – | 338 µg/mL | – | 1140 µg/mL | > 200 µM | – | 8 µM | – | – | – |
| Cl.N=C(N)N/N=C/c1ccc(Br)cc1 | 13.4 µg/mL | 250 µg/mL | 19.7 µg/mL | 62.5 µg/mL | 52.5 µg/mL | 35.6 µM | 250 µg/mL | 15 µM | – | – | – |
| Cl.NC(N)=N/N=C/c1cccc(Br)c1O | 45.6 µg/mL | 500 µg/mL | 145 µg/mL | 250 µg/mL | 80.5 µg/mL | 60.3 µM | 1000 µg/mL | 8 µM | – | – | – |
| Cl.NC(N)=N/N=C/c1ccc(O)cc1 | 121 µg/mL | > 1000 µg/mL | 443 µg/mL | > 1000 µg/mL | 408 µg/mL | > 200 µM | > 1000 µg/mL | 4.8 µM | – | – | – |
| CN(C)c1ccc(/C=N/NC(=N)N)cc1.Cl | 15.5 µg/mL | 1000 µg/mL | 32.5 µg/mL | 250 µg/mL | 121 µg/mL | 123 µM | 1000 µg/mL | 8.8 µM | – | – | Non-Toxic |
| Cl.NC(N)=N/N=C/c1cccc(O)c1 | 617 µg/mL | – | 391 µg/mL | – | 750 µg/mL | > 200 µM | – | 21 µM | – | – | – |
| COc1ccccc1/C=N/NC(=N)N.Cl | 125 µg/mL | 1000 µg/mL | 38.4 µg/mL | 500 µg/mL | 99.5 µg/mL | 72.7 µM | > 1000 µg/mL | – | Active | – | – |
